{
  "source": "paper PMC2812660",
  "about": "(Biochemical and biophysical research communications, 2009)",
  "target": "20S proteasome (Oryctolagus cuniculus, UniProt G1T4Q9)",
  "experiment": "fluorogenic chymotrypsin-like activity assay",
  "format": "biochemical",
  "details": "chymotrypsin-like site; control incubation without added SAM/SAH",
  "note": "*1 amine or outer side, *2 acyl side, *3 side chain or, on linkers, in order; H or OH if unused. Where a SMILES comes first, the peptide text is derived from it. The star is where a group is joined. AMC = Cc1cc(=O)oc2cc(N*)ccc12; Suc = O=C(CCC(=O)[*:2])[*:1]",
  "data": [
    {"smiles": "Cc1cc(=O)oc2cc(NC(=O)[C@H](Cc3ccc(O)cc3)NC(=O)[C@@H](NC(=O)[C@H](CC(C)C)NC(=O)[C@H](CC(C)C)NC(=O)CCC(=O)O)C(C)C)ccc12", "note": "[Suc-LLVY-AMC] (Suc-LLVY-{AMC})", "values": [
      {"measurement": "fluorogenic chymotrypsin-like activity assay", "result": "activity was detected in vitro using the fluorogenic substrate Suc-LLVY-AMC"}
    ]}
  ]
}
